Values joined by “and” are separate entries in the source; they are usually repeats but may differ in a detail not shown here. Equal entries are not always repeated. One block for each compound: values may come before it.
Assays:
Experiment in all cases: KINOMEscan competition binding
Conditions in all cases: compound 10.0 µM
FER (human) = FER (human) (UniProt P16591)
CAMK2B (human) = CAMK2B (human) (UniProt Q13554)
[1] = biological target: TYK2 JH1 catalytic (human) (UniProt P29597)
STK3 (human) = STK3 (human) (UniProt Q13188)
Sequence of STK3 (human) (Q13188 whole entry, looked up): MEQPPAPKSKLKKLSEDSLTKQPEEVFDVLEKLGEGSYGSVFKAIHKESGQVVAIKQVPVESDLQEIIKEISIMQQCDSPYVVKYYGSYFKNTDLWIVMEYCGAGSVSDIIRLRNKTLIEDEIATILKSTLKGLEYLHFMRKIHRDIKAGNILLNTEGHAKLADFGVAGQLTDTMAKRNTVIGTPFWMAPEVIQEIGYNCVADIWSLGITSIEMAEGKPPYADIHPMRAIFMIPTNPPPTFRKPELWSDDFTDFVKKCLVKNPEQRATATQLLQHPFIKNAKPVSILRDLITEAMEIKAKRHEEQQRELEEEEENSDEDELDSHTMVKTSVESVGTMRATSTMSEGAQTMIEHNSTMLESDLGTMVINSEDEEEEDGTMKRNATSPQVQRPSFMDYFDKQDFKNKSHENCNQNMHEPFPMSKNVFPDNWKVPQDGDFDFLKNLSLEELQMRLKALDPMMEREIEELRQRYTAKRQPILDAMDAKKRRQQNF

STK35 (human) = STK35 (human) (UniProt Q8TDR2)
RPS6KA3 KD1 (human) = RPS6KA3 KD1 (human) (UniProt P51812)
PAK7 (human) = PAK7 (human) (UniProt Q9P286)
Sequence of PAK7 (human) (Q9P286 whole entry, looked up): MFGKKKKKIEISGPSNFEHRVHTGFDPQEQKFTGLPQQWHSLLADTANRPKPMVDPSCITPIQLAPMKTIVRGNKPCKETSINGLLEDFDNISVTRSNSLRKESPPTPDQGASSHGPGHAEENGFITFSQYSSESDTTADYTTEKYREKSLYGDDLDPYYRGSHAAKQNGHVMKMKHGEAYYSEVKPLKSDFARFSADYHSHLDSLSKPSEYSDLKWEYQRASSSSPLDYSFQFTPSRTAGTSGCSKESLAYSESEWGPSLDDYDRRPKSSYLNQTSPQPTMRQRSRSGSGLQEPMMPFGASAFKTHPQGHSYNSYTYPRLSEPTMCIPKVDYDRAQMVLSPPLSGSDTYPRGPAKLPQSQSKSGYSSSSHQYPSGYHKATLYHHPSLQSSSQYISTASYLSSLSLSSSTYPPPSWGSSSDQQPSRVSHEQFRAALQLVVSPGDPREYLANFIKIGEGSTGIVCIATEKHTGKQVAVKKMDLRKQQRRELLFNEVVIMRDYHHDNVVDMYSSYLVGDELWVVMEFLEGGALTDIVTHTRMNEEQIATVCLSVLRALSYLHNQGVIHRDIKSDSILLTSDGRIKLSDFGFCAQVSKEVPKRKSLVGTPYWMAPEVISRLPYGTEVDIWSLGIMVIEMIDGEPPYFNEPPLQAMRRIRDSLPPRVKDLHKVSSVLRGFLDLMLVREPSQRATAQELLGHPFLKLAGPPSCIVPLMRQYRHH

TIE1 (human) = TIE1 (human) (UniProt P35590)
IKBKE (human) = IKBKE (human) (UniProt Q14164)
EGFR (human) = EGFR (human) (UniProt P00533)
CDC42BPG (human) = CDC42BPG (human) (UniProt Q6DT37)
[2] = tested on: ABL1 (human), P00519 [E255K]
MAPK4 (human) = MAPK4 (human) (UniProt P31152)
SRC (human) = SRC (human) (UniProt P12931)
MYLK2 (human) = MYLK2 (human) (UniProt Q9H1R3)
EPHB2 (human) = EPHB2 (human) (UniProt P29323)
CSF1R (human) = CSF1R (human) (UniProt P07333)
CAMK2D (human) = CAMK2D (human) (UniProt Q13557)
STK36 (human) = STK36 (human) (UniProt Q9NRP7)
PRKG1 (human) = PRKG1 (human) (UniProt Q13976)
MAPK1 (human) = MAPK1 (human) (UniProt P28482)
CDC42BPA (human) = CDC42BPA (human) (UniProt Q5VT25)
SGK110 (human) = SGK110 (human) (UniProt P0C264)
ACVR1B (human) = ACVR1B (human) (UniProt P36896)
[3] = tested on: ABL1 (human), P00519 [M351T]
MARK1 (human) = MARK1 (human) (UniProt Q9P0L2)
SLK (human) = SLK (human) (UniProt Q9H2G2)
PIK3CB (human) = PIK3CB (human) (UniProt P42338)
Sequence of PIK3CB (human) (P42338 whole entry, looked up): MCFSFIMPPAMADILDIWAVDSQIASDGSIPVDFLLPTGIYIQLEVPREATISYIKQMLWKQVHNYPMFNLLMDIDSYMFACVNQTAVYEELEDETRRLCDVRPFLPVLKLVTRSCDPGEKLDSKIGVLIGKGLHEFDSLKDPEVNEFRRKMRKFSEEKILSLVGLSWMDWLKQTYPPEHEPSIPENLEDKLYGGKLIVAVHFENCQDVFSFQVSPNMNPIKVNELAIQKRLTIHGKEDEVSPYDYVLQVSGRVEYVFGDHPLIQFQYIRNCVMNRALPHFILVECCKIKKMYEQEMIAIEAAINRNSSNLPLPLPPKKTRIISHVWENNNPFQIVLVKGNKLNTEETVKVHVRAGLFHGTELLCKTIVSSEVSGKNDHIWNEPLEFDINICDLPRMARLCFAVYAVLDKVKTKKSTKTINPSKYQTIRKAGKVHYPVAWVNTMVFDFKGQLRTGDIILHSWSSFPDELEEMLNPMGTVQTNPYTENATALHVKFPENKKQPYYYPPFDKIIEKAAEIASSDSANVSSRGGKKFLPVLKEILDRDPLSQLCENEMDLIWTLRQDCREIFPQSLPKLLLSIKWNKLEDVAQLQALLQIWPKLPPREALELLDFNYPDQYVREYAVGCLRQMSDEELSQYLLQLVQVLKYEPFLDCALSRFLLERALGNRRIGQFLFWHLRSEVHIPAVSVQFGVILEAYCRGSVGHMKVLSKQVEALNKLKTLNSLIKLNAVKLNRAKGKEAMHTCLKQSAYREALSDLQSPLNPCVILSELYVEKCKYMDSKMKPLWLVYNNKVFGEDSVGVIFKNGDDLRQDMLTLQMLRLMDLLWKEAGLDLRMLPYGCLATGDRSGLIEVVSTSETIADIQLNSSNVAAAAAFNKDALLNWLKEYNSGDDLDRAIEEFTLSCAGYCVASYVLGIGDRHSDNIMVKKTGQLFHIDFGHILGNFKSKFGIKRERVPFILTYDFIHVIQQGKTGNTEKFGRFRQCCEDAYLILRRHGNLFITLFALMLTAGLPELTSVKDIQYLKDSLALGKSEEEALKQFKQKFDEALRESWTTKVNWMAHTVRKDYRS

RPS6KA6 KD1 (human) = RPS6KA6 KD1 (human) (UniProt Q9UK32)
FGFR4 (human) = FGFR4 (human) (UniProt P22455)
PLK3 (human) = PLK3 (human) (UniProt Q9H4B4)
INSR (human) = INSR (human) (UniProt P06213)
ULK1 (human) = ULK1 (human) (UniProt O75385)
Sequence of ULK1 (human) (O75385 whole entry, looked up): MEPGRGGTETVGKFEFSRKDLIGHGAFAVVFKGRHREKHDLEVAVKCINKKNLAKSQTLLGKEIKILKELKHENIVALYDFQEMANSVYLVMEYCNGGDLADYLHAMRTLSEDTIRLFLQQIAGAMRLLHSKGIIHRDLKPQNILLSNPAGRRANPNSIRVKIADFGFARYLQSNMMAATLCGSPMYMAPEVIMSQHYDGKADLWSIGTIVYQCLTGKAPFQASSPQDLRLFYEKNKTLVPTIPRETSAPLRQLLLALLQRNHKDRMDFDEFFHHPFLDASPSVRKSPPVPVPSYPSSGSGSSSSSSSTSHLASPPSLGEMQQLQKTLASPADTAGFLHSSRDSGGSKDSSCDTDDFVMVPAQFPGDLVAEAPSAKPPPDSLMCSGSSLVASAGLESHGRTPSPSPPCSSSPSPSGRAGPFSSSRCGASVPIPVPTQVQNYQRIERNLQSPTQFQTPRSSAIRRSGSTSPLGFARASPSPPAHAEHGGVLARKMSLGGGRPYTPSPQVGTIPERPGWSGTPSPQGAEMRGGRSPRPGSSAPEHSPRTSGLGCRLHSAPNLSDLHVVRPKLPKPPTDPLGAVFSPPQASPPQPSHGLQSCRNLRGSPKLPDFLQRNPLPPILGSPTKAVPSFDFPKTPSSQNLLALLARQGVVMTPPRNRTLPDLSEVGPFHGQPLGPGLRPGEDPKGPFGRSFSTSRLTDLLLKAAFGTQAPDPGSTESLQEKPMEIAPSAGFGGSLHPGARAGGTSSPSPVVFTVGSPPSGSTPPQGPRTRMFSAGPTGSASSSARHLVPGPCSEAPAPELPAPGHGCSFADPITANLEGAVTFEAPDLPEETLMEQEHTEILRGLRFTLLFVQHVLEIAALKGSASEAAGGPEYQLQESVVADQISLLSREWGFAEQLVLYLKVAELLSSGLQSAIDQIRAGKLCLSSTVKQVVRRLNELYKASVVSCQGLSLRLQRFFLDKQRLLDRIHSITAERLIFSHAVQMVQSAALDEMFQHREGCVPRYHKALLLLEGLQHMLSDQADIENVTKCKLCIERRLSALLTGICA

AKT2 (human) = AKT2 (human) (UniProt P31751)
PRKX (human) = PRKX (human) (UniProt P51817)
MAP3K12 (human) = MAP3K12 (human) (UniProt Q12852)
PLK1 (human) = PLK1 (human) (UniProt P53350)
Sequence of PLK1 (human) (P53350 whole entry, looked up): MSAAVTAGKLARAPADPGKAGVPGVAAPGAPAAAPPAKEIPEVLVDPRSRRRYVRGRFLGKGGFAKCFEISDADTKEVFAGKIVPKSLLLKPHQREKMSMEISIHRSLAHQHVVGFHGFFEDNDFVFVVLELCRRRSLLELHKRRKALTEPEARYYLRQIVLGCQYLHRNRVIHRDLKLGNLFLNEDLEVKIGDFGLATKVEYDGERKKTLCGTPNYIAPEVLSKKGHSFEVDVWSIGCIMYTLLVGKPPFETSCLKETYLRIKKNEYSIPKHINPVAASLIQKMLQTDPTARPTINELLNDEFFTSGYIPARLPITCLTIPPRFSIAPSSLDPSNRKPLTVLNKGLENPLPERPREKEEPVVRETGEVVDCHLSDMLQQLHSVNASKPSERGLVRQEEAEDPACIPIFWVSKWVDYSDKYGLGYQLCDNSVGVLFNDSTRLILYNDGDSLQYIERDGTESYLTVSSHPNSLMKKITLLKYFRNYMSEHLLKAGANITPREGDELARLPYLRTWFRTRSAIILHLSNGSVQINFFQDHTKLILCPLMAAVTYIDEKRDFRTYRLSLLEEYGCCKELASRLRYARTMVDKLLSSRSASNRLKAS

MAP4K3 (human) = MAP4K3 (human) (UniProt Q8IVH8)
MYO3A (human) = MYO3A (human) (UniProt Q8NEV4)
PDGFRA (human) = PDGFRA (human) (UniProt P16234)
Sequence of PDGFRA (human) (P16234 whole entry, looked up): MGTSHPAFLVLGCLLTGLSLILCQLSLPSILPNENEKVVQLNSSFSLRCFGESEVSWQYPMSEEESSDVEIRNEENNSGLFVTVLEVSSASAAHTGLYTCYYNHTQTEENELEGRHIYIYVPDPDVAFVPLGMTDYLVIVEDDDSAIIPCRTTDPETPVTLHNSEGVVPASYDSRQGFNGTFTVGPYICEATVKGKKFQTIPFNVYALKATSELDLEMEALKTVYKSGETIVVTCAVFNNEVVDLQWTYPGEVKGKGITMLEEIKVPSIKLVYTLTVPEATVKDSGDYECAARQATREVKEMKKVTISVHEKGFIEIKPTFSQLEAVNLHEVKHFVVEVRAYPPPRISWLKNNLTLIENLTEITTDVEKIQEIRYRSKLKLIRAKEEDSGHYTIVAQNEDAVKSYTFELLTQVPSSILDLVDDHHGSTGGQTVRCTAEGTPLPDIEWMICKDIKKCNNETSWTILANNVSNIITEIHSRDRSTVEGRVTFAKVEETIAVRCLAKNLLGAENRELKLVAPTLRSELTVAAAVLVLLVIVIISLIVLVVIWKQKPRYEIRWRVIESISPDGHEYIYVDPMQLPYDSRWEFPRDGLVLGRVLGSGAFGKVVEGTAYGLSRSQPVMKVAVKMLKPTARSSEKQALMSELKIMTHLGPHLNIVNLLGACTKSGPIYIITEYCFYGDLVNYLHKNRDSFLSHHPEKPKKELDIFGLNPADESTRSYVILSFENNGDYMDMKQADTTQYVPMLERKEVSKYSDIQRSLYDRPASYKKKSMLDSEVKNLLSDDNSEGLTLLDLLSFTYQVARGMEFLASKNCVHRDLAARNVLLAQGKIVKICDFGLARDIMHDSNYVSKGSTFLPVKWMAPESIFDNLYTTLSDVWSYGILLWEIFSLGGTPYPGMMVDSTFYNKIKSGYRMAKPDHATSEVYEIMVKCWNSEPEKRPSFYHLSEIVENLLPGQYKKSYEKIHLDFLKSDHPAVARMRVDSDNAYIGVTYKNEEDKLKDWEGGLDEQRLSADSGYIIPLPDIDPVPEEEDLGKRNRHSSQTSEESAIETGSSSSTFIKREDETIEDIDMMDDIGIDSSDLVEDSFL

CDK18 (human) = CDK18 (human) (UniProt Q07002)
STK38L (human) = STK38L (human) (UniProt Q9Y2H1)

kinase still bound, per cent of control (FER (human)): 74%
kinase still bound, per cent of control (CAMK2B (human)): 72%
kinase still bound, per cent of control [1]: 64%
kinase still bound, per cent of control (STK3 (human)): 84%
kinase still bound, per cent of control (STK35 (human)): 95%
kinase still bound, per cent of control (RPS6KA3 KD1 (human)): 55%
kinase still bound, per cent of control (PAK7 (human)): 64%
kinase still bound, per cent of control (TIE1 (human)): 94%
kinase still bound, per cent of control (IKBKE (human)): 92%
kinase still bound, per cent of control (EGFR (human)): 59% and 83%
kinase still bound, per cent of control (CDC42BPG (human)): 100%
kinase still bound, per cent of control [2]: 90%
kinase still bound, per cent of control (MAPK4 (human)): 100%
kinase still bound, per cent of control (SRC (human)): 100%
kinase still bound, per cent of control (MYLK2 (human)): 98%
kinase still bound, per cent of control (EPHB2 (human)): 94%
kinase still bound, per cent of control (CSF1R (human)): 67%
kinase still bound, per cent of control (CAMK2D (human)): 65%
kinase still bound, per cent of control (STK36 (human)): 100%
kinase still bound, per cent of control (PRKG1 (human)): 85%
kinase still bound, per cent of control (MAPK1 (human)): 75%
kinase still bound, per cent of control (CDC42BPA (human)): 100%
kinase still bound, per cent of control (SGK110 (human)): 100%
kinase still bound, per cent of control (ACVR1B (human)): 100%
kinase still bound, per cent of control [3]: 93%
kinase still bound, per cent of control (MARK1 (human)): 95%
kinase still bound, per cent of control (SLK (human)): 95%
kinase still bound, per cent of control (PIK3CB (human)): 92%
kinase still bound, per cent of control (RPS6KA6 KD1 (human)): 87%
kinase still bound, per cent of control (FGFR4 (human)): 56%
kinase still bound, per cent of control (PLK3 (human)): 0.75%
kinase still bound, per cent of control (INSR (human)): 53%
kinase still bound, per cent of control (ULK1 (human)): 78%
kinase still bound, per cent of control (AKT2 (human)): 100%
kinase still bound, per cent of control (PRKX (human)): 91%
kinase still bound, per cent of control (MAP3K12 (human)): 71%
kinase still bound, per cent of control (PLK1 (human)): 0.2%
kinase still bound, per cent of control (MAP4K3 (human)): 66%
kinase still bound, per cent of control (MYO3A (human)): 54%
kinase still bound, per cent of control (PDGFRA (human)): 98%
kinase still bound, per cent of control (CDK18 (human)): 100%
kinase still bound, per cent of control (STK38L (human)): 94%
SMILES: COc1cc(N2CCC(O)CC2)ccc1Nc1ncc2c(n1)N1CCc3cccc(c31)C(=O)N2C

kinase still bound, per cent of control (FER (human)): 62%
kinase still bound, per cent of control (CAMK2B (human)): 100%
kinase still bound, per cent of control [1]: 38%
kinase still bound, per cent of control (STK3 (human)): 87%
kinase still bound, per cent of control (STK35 (human)): 100%
kinase still bound, per cent of control (RPS6KA3 KD1 (human)): 100%
kinase still bound, per cent of control (PAK7 (human)): 88%
kinase still bound, per cent of control (TIE1 (human)): 100%
kinase still bound, per cent of control (IKBKE (human)): 100%
kinase still bound, per cent of control (EGFR (human)): 100%
kinase still bound, per cent of control (CDC42BPG (human)): 100%
kinase still bound, per cent of control [2]: 100%
kinase still bound, per cent of control (MAPK4 (human)): 88%
kinase still bound, per cent of control (SRC (human)): 100%
kinase still bound, per cent of control (MYLK2 (human)): 88%
kinase still bound, per cent of control (EPHB2 (human)): 94%
kinase still bound, per cent of control (CSF1R (human)): 89%
kinase still bound, per cent of control (CAMK2D (human)): 100%
kinase still bound, per cent of control (STK36 (human)): 100%
kinase still bound, per cent of control (PRKG1 (human)): 100%
kinase still bound, per cent of control (MAPK1 (human)): 100%
kinase still bound, per cent of control (CDC42BPA (human)): 90%
kinase still bound, per cent of control (SGK110 (human)): 100%
kinase still bound, per cent of control (ACVR1B (human)): 100%
kinase still bound, per cent of control [3]: 96%
kinase still bound, per cent of control (MARK1 (human)): 100%
kinase still bound, per cent of control (SLK (human)): 100%
kinase still bound, per cent of control (PIK3CB (human)): 100%
kinase still bound, per cent of control (RPS6KA6 KD1 (human)): 100%
kinase still bound, per cent of control (FGFR4 (human)): 100%
kinase still bound, per cent of control (PLK3 (human)): 100%
kinase still bound, per cent of control (INSR (human)): 95%
kinase still bound, per cent of control (ULK1 (human)): 85%
kinase still bound, per cent of control (AKT2 (human)): 100%
kinase still bound, per cent of control (PRKX (human)): 94%
kinase still bound, per cent of control (MAP3K12 (human)): 90%
kinase still bound, per cent of control (PLK1 (human)): 100%
kinase still bound, per cent of control (MAP4K3 (human)): 100%
kinase still bound, per cent of control (MYO3A (human)): 100%
kinase still bound, per cent of control (PDGFRA (human)): 100%
kinase still bound, per cent of control (CDK18 (human)): 100%
kinase still bound, per cent of control (STK38L (human)): 100%
SMILES: CN1C(=O)c2ccccc2N(C)c2nc(NS(=O)(=O)c3ccc(N)cc3)ncc21

kinase still bound, per cent of control (FER (human)): 100%
kinase still bound, per cent of control (CAMK2B (human)): 47%
kinase still bound, per cent of control [1]: 2.5%
kinase still bound, per cent of control (STK3 (human)): 90%
kinase still bound, per cent of control (STK35 (human)): 79%
kinase still bound, per cent of control (RPS6KA3 KD1 (human)): 42%
kinase still bound, per cent of control (PAK7 (human)): 65%
kinase still bound, per cent of control (TIE1 (human)): 64%
kinase still bound, per cent of control (IKBKE (human)): 62%
kinase still bound, per cent of control (EGFR (human)): 73% and 89%
kinase still bound, per cent of control (CDC42BPG (human)): 88%
kinase still bound, per cent of control [2]: 94%
kinase still bound, per cent of control (MAPK4 (human)): 100%
kinase still bound, per cent of control (SRC (human)): 100%
kinase still bound, per cent of control (MYLK2 (human)): 14%
kinase still bound, per cent of control (EPHB2 (human)): 71%
kinase still bound, per cent of control (CSF1R (human)): 69%
kinase still bound, per cent of control (CAMK2D (human)): 59%
kinase still bound, per cent of control (STK36 (human)): 85%
kinase still bound, per cent of control (PRKG1 (human)): 100%
kinase still bound, per cent of control (MAPK1 (human)): 97%
kinase still bound, per cent of control (CDC42BPA (human)): 73%
kinase still bound, per cent of control (SGK110 (human)): 100%
kinase still bound, per cent of control (ACVR1B (human)): 80%
kinase still bound, per cent of control [3]: 49%
kinase still bound, per cent of control (MARK1 (human)): 100%
kinase still bound, per cent of control (SLK (human)): 29%
kinase still bound, per cent of control (PIK3CB (human)): 4.8%
kinase still bound, per cent of control (RPS6KA6 KD1 (human)): 34%
kinase still bound, per cent of control (FGFR4 (human)): 93%
kinase still bound, per cent of control (PLK3 (human)): 85%
kinase still bound, per cent of control (INSR (human)): 54%
kinase still bound, per cent of control (ULK1 (human)): 21%
kinase still bound, per cent of control (AKT2 (human)): 100%
kinase still bound, per cent of control (PRKX (human)): 100%
kinase still bound, per cent of control (MAP3K12 (human)): 76%
kinase still bound, per cent of control (PLK1 (human)): 46%
kinase still bound, per cent of control (MAP4K3 (human)): 53%
kinase still bound, per cent of control (MYO3A (human)): 46%
kinase still bound, per cent of control (PDGFRA (human)): 99%
kinase still bound, per cent of control (CDK18 (human)): 82%
kinase still bound, per cent of control (STK38L (human)): 92%
SMILES: O=C1NC(=O)/C(=C/c2c[nH]c(=O)c(-c3ccc(N4CCNCC4)nc3)c2)S1
